Reference: publication PMC8626775, “Anti-schistosomal activities of quinoxaline-containing compounds: From hit identification to lead optimisation” (European Journal of Medicinal Chemistry, 2021)
Values joined by “and” are separate entries in the source; they are usually repeats but may differ in a detail not shown here. Identical values can stand only once. Like-named read-outs stand apart in the source and are kept apart here.

What was measured:
[1] = tested on: S. mansoni schistosomula; experiment: S. mansoni schistosomula high-throughput phenotype and motility screen (Roboworm), 72 h; assay type: cell-based, Schistosoma mansoni
Method in brief: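 Newly transformed schistosomula (S. mansoni PR-1, mechanically transformed cercariae), 120 per well, exposed to compounds at a single concentration or two-fold titrations for 72 h at 37 °C, 5% CO2.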

[2] = tested on: HepG2 cells; experiment: HepG2 MTT cytotoxicity assay; conditions: for Selectivity Index (SI) Adult worms: HepG2 CC50 versus adult worm EC50; for Selectivity Index (SI) Somula: HepG2 CC50 versus schistosomula EC50; for CC50: Table 2, MTT
Description: (§1) Initially the cells were handled under sterile conditions and grown at 37 °C in a humidified atmosphere containing 5% CO2. Cytotoxicity was evaluated by way of a 3-(4, 5- dimethylthiazol-2-yl)-2,5-diphenyl tetrazolium bromide (MTT) assay as previously described. The cells were counted in a dual chamber counting slide using the BIORAD TC-10 Automated cell counter, seeded in a 96-well plate (Fisher Scientific, Loughborough, UK) at a density of 2 × 10^4 cells/well and incubated in an atmosphere of 5% CO2 at 37 °C. […] The absorbance readings (at 570 nm) of the soluble formazan crystals were recorded using PolarStar Omega plate reader (BMG-Labtech). […] The latter was used to calculate the selectivity index (SI) of the compounds presented herein.

[3] = tested on: Juvenile S. mansoni worms; experiment: S. mansoni juvenile worm screen (motility score, propidium iodide uptake), 72 h; assay type: cell-based, Schistosoma mansoni; conditions: juvenile worms, positive controls at 15 μM, Fig. S4
Text: (§2) Mice (Mus musculus HsdOLa:TO - Tuck Ordinary; Envigo, UK) were used for the mammalian-specific propagation of the S. mansoni life cycle. Experimental animals were infected with 4000 or 180 S. mansoni cercariae/mouse and perfused three- or seven-weeks post-infection to obtain S. mansoni juvenile or adult worms, respectively. Preparation steps following perfusion have been described previously. Briefly, the parasite material was washed three times with pre-warmed adult worm media (DMEM (Gibco, Paisley, UK) supplemented with 10% (v/v) Fetal Calf Serum (FCS, Gibco, Paisley, UK), 1% (v/v) L-glutamine (Gibco, Paisley, UK) and an antibiotic mixture (150 Units/ml penicillin and 150 μg/ml streptomycin; Gibco, UK)) to remove residual host contamination and incubated in a humidified environment containing 5% CO2 at 37 °C for at least 1 h.
Juvenile worms were distributed in a 96-well tissue culture plate (n = 20–25 individuals/well) containing 200 μl/well. Compounds were added to each treatment well at a concentration range of 10–0.156 μM. Negative (1.25% DMSO) and positive (15 μM PZQ and 15 μM AUR in 1.25% DMSO) controls were also included in each drug screen. Treated juvenile worms were incubated for 72 h in a humidified environment containing 5% CO2 at 37 °C. Compound-induced phenotype and motility effects were quantified using an adapted version of the WHO-TDR scoring system (in summary: 0 = dead, 1 = movement of the suckers only and slight contraction of the body, 2 = movement at the anterior and posterior regions only, 3 = full body movement but sluggish and 4 = normal movement). Additionally, differential uptake of propidium iodide (PI, P1304MP, Sigma-Aldrich, UK) was used to quantify worm viability as previously described. In brief, after 15 min incubation with 2 μg/ml PI, the parasite cultures were imaged under both bright-field and fluorescent settings (PI detection, 562 and 624 excitation and emission wavelengths, respectively) using an ImageXpressXL high content imager (Molecular Devices, UK). Enumeration of PI positive and negative juvenile worms was manually performed across all parasites within the well and the percentage of PI positive parasite was calculated per well.

[4] = tested on: S. mansoni adult worms; experiment: S. mansoni adult worm motility screen (WormassayGP2), 72 h; assay type: cell-based, Schistosoma mansoni; conditions: for EC50: Schistosoma mansoni
Text: as §2
(§3) For the evaluation of anti-schistosomal activity on the adult stage of the parasite, 7-wk old worms were transferred into 48 well tissue culture plates (1–3 worm pairs/well, in duplicate). […] DMSO (0.5%) and praziquantel (10 μM in 0.5% DMSO) were also included as negative and positive control treatments. Treated adult worms were incubated for 72 h in a humidified environment containing 5% CO2 at 37 °C. Parasite motility after compound treatment was assessed by a digital image processing-based system (WormassayGP2), modified after Wormassay. Following compound-parasite co-incubation, eggs were collected, fixed in formalin (10% v/v formaldehyde) and enumerated aiming to collect further information on any compound-induced effects on parasite fecundity and IVLE production.

[5] = tested on: S. mansoni adult worms; experiment: In vitro laid egg (IVLE) production by S. mansoni adult worm pairs, 72 h; assay type: cell-based, Schistosoma mansoni
Description: as §3

[6] = tested on: Adult S. haematobium worms; experiment: In vitro screening of S. haematobium adults at 100 nM (WormAssay motility, descriptors, severity score); assay type: cell-based, Schistosoma haematobium
Description: (§4) For each species, parasite recovery involved reverse perfusion of the hepatic portal and mesenteric system using DMEM (Fisher Scientific). Parasites were washed six times with Basch 169 medium supplemented with 100 U/ml penicillin and 100 μg/ml streptomycin before manually distributing approximately 5 males per well (on occasion 1 or 2 females might also be present) of a 24-well plate (Corning Costar 3524). […] The next morning, a final concentration of 100 nM compound (in 1 μL DMSO) was added to each well and the final volume made up to 2 ml with Basch 169 medium supplemented with antibiotics and FBS. Each compound was tested in triplicate (except for some instances tested in duplicate). […] The phenotypic characterisation of compound effects focused on male worms due to the greater range of their motility characteristics that include flexing, bending, stretching, sucker walking and adherence, compared to the more sedentary female worms. In addition to descriptors, WormAssay, as adapted for the schistosome, was used to measure average worm motility per well [72, 73].

[7] = tested on: adult S. japonicum male worms; experiment: In vitro screening of S. japonicum adults at 100 nM (WormAssay motility, descriptors, severity score); assay type: cell-based, Schistosoma japonicum
Description: as §4

[8] = HepG2 MTT cytotoxicity assay; conditions: human, HepG2 cells
Description: as §1

[9] = Schistosoma mansoni, 72 h, Table 1, 72 h, two dose response titrations (0.313–10 μM), 95% CI in brackets, read-out: Activity on schistosomula (EC50, μM - 72 h) Motility
[10] = Schistosoma mansoni, 72 h, Table 1, 72 h, two dose response titrations (0.313–10 μM), 95% CI in brackets, read-out: Activity on schistosomula (EC50, μM - 72 h) Phenotype
[11] = Schistosoma mansoni, 72 h, Table 1, mean of phenotype and motility EC50, 72 h, read-out: Activity on schistosomula (EC50, μM - 72 h) Average
[12] = Schistosoma mansoni, 72 h, Table 2, average of phenotype and motility EC50, 72 h, read-out: Activity on schistosomula (EC50, μM - 72 h) Average
[13] = Schistosoma mansoni, 72 h, Table 2, motility, 72 h, three replicate titrations (0.313–10 μM), read-out: Activity on schistosomula (EC50, μM - 72 h) M
[14] = Schistosoma mansoni, 72 h, Table 2, phenotype, 72 h, three replicate titrations (0.313–10 μM), read-out: Activity on schistosomula (EC50, μM - 72 h) P
[15] = Table 2, 72 h, titrations 0.0095–5 μM, WormassayGP2, read-out: Activity on adult worms (EC50, μM - 72 h) Motility
[16] = Schistosoma mansoni, Table 4, Series A, read-out: Anti-schistosomal activity EC50 Schistosomula (μM) Motility
[17] = Schistosoma mansoni, Table 4, Series A, read-out: Anti-schistosomal activity EC50 Schistosomula (μM) Phenotype
[18] = Table 4, Series A, read-out: Anti-schistosomal activity EC50 Adult (nM) Motility

| Structure (SMILES) | EC50 [1, 9] [µM] | EC50 [1, 10] [µM] | EC50 [1, 11] [µM] | EC50 [1, 12] [µM] | EC50 [1, 13] [µM] | EC50 [1, 14] [µM] | Selectivity Index (SI) Adult worms [2] | Selectivity Index (SI) Somula [2] | PI pos [3] [%] | EC50 [4, 15] [µM] | EC50 [1, 16] [µM] | EC50 [1, 17] [µM] | EC50 [4, 18] [µM] | further results |
| --- | --- | --- | --- | --- | --- | --- | --- | --- | --- | --- | --- | --- | --- | --- |
| O=C(C1CCCCC1)N1CC(=O)N2CCc3ccccc3C2C1 (stereo not drawn) [PZQ, praziquantel, reference compound] | 0.88 | 1.14 | 1.01 | 1.01 | 0.88 | 1.14 | 945.31 | 100.05 | 100 | 0.107 | – | – | – | – |
| O=[N+]([O-])c1ccc2nc(Nc3cc(F)cc(C(F)(F)F)c3)c(Nc3cc(F)cc(C(F)(F)F)c3)nc2c1 [Compound 34, N2, N3-bis(3-fluoro-5-(trifluoromethyl)phenyl)-6-nitroquinoxaline-2,3-diamine] | – | – | – | 0.4 | 0.43 | 0.37 | – | – | – | 0.00647 | 0.43 | 0.37 | 0.00647 | Effect on IVLE production compared with PZQ ([5]; 0.0024–10 μM): more potent than PZQ |
| O=[N+]([O-])c1ccc2nc(Nc3cccc(C(F)(F)F)c3)c(Nc3cccc(C(F)(F)F)c3)nc2c1 [Compound 30, 6-nitro-N2, N3-bis(3-(trifluoromethyl)phenyl)quinoxaline-2,3-diamine] | – | – | – | 0.38 | 0.43 | 0.34 | 348 and 347.59 | 2.36 | – | 0.00259 | 0.43 | 0.34 | 0.00259 | Effect on S. haematobium adult worms ([6]; 5, 24, 48 and 72 h): relatively mild effects; SEVERITY SCORES 5 h ([6]; S. haematobium, 5 h, max = 4, one line per replicate): 0; SEVERITY SCORES 24 h ([6]; S. haematobium, 24 h, max = 4, one line per replicate): 0; SEVERITY SCORES 48 h ([6]; S. haematobium, 48 h, max = 4, one line per replicate): 1 and 2; DESCRIPTORS 48 h ([6]; S. haematobium, 48 h, one line per replicate): S-unc, on sides; SEVERITY SCORES 72 h ([6]; S. haematobium, 72 h, max = 4, one line per replicate): 2; DESCRIPTORS 72 h ([6]; S. haematobium, 72 h, one line per replicate): S-unc, on sides; Effect on S. japonicum adult male worms ([7]; 5, 24, 48 and 72 h): decreased motility starting at 48 h; SEVERITY SCORES 5 h ([7]; S. japonicum, 5 h, max = 4, one line per replicate): 0; SEVERITY SCORES 24 h ([7]; S. japonicum, 24 h, max = 4, one line per replicate): 0; SEVERITY SCORES 48 h ([7]; S. japonicum, 48 h, max = 4, one line per replicate): 2 and 1; DESCRIPTORS 48 h ([7]; S. japonicum, 48 h, one line per replicate): S, on sides and S; SEVERITY SCORES 72 h ([7]; S. japonicum, 72 h, max = 4, one line per replicate): 2 and 1; DESCRIPTORS 72 h ([7]; S. japonicum, 72 h, one line per replicate): S, on sides and S+ |
| CC(=O)OC[C@H]1O[C@@H]([S-])[C@H](OC(C)=O)[C@@H](OC(C)=O)[C@@H]1OC(C)=O.CCP(CC)CC.[Au+] [AUR, Auranofin, reference compound] | – | – | – | – | – | – | – | – | 0 | – | – | – | – | EC50 ([1]; Table 1, 72 h, two dose response titrations (0.313–10 μM), 95% CI in brackets, read-out: Activity on schistosomula (EC50, μM - 72 h) Motility): 0.45 µM; EC50 ([1]; Table 1, mean of phenotype and motility EC50, 72 h, read-out: Activity on schistosomula (EC50, μM - 72 h) Average): 0.41 µM; EC50 ([1]; Table 2, average of phenotype and motility EC50, 72 h, read-out: Activity on schistosomula (EC50, μM - 72 h) Average): 0.41 µM; EC50 ([1]; Table 2, motility, 72 h, three replicate titrations (0.313–10 μM), read-out: Activity on schistosomula (EC50, μM - 72 h) M): 0.45 µM; EC50 ([1]; Table 2, phenotype, 72 h, three replicate titrations (0.313–10 μM), read-out: Activity on schistosomula (EC50, μM - 72 h) P): 0.37 µM; CC50 ([2]; read-out: HepG2 cells (CC50, μM) 24 h, 24 h co-incubation): 5.07 µM; CC50 ([2]; read-out: HepG2 cells (CC50, μM) 72 h, 72 h co-incubation): 2.94 µM |
| c1ccc(/N=c2\sc3ccccc3s\c2=N\c2ccccc2)cc1 [Compound 1] | 4.47 | 4.72 | 4.59 | – | – | – | – | – | – | – | – | – | – | Activity on schistosomula in the primary screen at 10 μM ([1]; 10 μM, 72 h): hit; Activity on schistosomula in the primary screen at 50 μM ([1]; 50 μM, 72 h): hit; EC50 ([1]; Schistosoma mansoni, Fig. S3, average schistosomula EC50, read-out: EC50 (Fig. S3, anti-schistosomula activity)): 4.41 µM; Concentration down to which activity on schistosomula was retained ([1]; dose-response titration, 72 h): 5 µM; Concentration up until which production of in vitro laid eggs (IVLEs) was significantly inhibited ([5]; titration 50–6.25 μM): 12.5 µM; Adult worm motility at 6.25 μM ([4]; 6.25 μM, 72 h): normal motility; Effect on adult male and female worm pairs at 50 and 25 μM ([4]; 50 and 25 μM, 72 h): lethal effect |
| O=[N+]([O-])c1ccc2nc(-c3ccc(F)cc3)c(-c3ccc(F)cc3)nc2c1 [Compound 21] | > 50 | > 50 | – | – | – | – | – | – | – | – | – | – | – | Effect on phenotype and motility of S. mansoni schistosomula ([1]; primary tested concentrations 10 and 50 μM, 72 h): did not have any effect; CC50 at 24 h [8]: 6000 to 20000 nM |
